Assay results from ChEMBL document CHEMBL3399981, “Novel neurotrophic phenylbutenoids from Indonesian ginger Bangle, Zingiber purpureum” (Bioorg Med Chem Lett, 2015).
The source made the active and inactive calls. No cut-off for these calls is given here.

Key:
[1] = Toxicity in rat PC12 cells at > 10 uM after 4 days by phase-contrast microscopy in presence of 2 ng/ml NGF; assay type: cell-based; settings: pc-12, 96 h
[2] = test system: PC-12; test: Neuritogenic activity in rat PC12 cells assessed as neurite outgrowth at 1 uM after 4 days by phase-contrast microscopy in presence of 2 ng/ml NGF; assay type: functional, cell-based
[3] = test system: PC-12; test: Neuritogenic activity in rat PC12 cells assessed as neurite outgrowth after 4 days by phase-contrast microscopy in presence of 2 ng/ml NGF; assay type: functional, cell-based
[4] = target: Amyloid-beta precursor protein (Homo sapiens) (UniProt P05067); test: Inhibition of beta-sheet formation in amyloid beta-42 (unknown origin) assessed as decrease in ThT fluorescence after 1 hr by spectrophotometric plate reader
Chain of Amyloid-beta precursor protein (Homo sapiens) (P05067 whole entry): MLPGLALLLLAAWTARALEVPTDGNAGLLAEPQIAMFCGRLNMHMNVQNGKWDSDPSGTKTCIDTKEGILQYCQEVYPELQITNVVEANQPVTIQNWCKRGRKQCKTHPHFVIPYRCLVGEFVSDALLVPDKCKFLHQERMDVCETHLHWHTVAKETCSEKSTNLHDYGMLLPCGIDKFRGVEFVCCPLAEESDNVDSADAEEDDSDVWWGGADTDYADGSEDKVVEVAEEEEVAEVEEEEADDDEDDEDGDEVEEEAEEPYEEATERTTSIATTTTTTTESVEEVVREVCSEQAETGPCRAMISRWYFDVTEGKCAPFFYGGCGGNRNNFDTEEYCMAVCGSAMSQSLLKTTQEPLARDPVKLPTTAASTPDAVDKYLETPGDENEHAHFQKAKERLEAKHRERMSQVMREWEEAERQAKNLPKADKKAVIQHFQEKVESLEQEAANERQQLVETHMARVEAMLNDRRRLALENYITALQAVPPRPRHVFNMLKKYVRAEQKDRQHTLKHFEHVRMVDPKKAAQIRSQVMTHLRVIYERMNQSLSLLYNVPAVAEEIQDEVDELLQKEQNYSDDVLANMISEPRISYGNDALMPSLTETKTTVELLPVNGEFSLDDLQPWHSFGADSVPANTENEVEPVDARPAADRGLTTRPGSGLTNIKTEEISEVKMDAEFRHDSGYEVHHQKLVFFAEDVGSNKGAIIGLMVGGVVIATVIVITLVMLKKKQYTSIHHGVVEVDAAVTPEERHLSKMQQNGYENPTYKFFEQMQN

[5] = target: Amyloid-beta precursor protein (Homo sapiens) (UniProt P05067); test: Inhibition of beta-sheet formation in amyloid beta-42 (unknown origin) assessed as decrease in ThT fluorescence at 50 uM after 1 hr by spectrophotometric plate reader
[6] = test system: PC-12; test: Neuritogenic activity in rat PC12 cells assessed as neurite outgrowth at 30 uM after 4 days by phase-contrast microscopy; assay type: functional, cell-based
[7] = test system: PC-12; test: Neuritogenic activity in rat PC12 cells assessed as neurite outgrowth at 1 to 30 uM after 4 days by phase-contrast microscopy in presence of 2 ng/ml NGF; assay type: functional, cell-based
[8] = Toxicity in rat PC12 cells at > 30 uM after 4 days by phase-contrast microscopy in presence of 2 ng/ml NGF; assay type: cell-based; settings: pc-12, 96 h
[9] = test system: PC-12; test: Neuritogenic activity in rat PC12 cells assessed as neurite outgrowth at 10 uM after 4 days by phase-contrast microscopy in presence of 2 ng/ml NGF; assay type: functional, cell-based

Structure (SMILES) | Activity [1] | Activity [2] | Activity [3] | inhibition [4] | inhibition [5] | Activity [6] | Activity [7] | Activity [8] | Activity [9]
COc1cc(/C=C/C(=O)C2(C(=O)/C=C/c3ccc(O)c(OC)c3)CCC=C[C@@H]2c2ccc(OC)c(OC)c2)ccc1O | Toxic | Active | Dose-dependent effect | Dose-dependent effect | 18.9% | – | – | – | –
COc1ccc(/C=C/[C@H]2CCC=C[C@@H]2c2ccc(OC)c(OC)c2)cc1OC | – | – | – | Dose-dependent effect | 59.6% | Active | – | – | –
COc1ccc([C@H]2[C@H](CCO)CC=C[C@@H]2c2ccc(OC)c(OC)c2)cc1OC | – | – | – | – | – | – | inactive | – | –
COc1cc(/C=C/C(=O)C2(C(=O)/C=C/c3ccc(O)c(OC)c3)CCC=C[C@@H]2c2cc(OC)c(OC)cc2OC)ccc1O | – | Active | Dose-dependent effect | – | – | – | – | Toxic | Active
